# Measured values from patent US20030104507A1, “Method for detection of ATP” (priority 2001, published 2003).
# Columns and labels:
# [1] = biological target: native firefly luciferase (Photinus pyralis, UniProt P08659); details: cited from earlier work
# [2] = system: ATPase activity endogenous to L929 cell lysate; assay: Detergent inhibition of ATPase endogenous to L929 cell lysate (ATP remaining by luciferase luminescence, 22° C.); type: biochemical; parameters: key to Relative ATPase Activity, slope det/slope lysate: slope with detergent / slope without; ≥1.0 = 100% activity, 0.5 = 50%; details: for concentrations which resulted in a 25% or greater decrease in the relative ATPase activity: compared to reactions in the absence of detergent
# Outline: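 L929 lysate (1.5×10^5 cells/ml, four freeze–thaw cycles) held with detergent at final 1.0, 0.5, 0.1 or 0.05% at 22° C; remaining ATP read over time with luciferase-luciferin reagent (100 μM luciferin, 10 mM MgSO4, pH 7.5). Relative ATPase activity = slope of log % ATP remaining vs time with detergent ÷ slope for lysate-only control.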
# [3] = Precipitation of detergent in reagent composition samples; type: physicochemical
# [4] = 0.50 percent detergent, second 0.50 line of DTAB (assayed on two days)
# [5] = Example 2, 0.02% detergent, 5 min
# [6] = Example 2, 0.02% detergent, 75 min
# [7] = Example 2, 0.02% detergent, 169 min
# [8] = Example 2, 0.02% detergent, 222 min
# [9] = Example 2, 0.02% detergent, 260 min
# [10] = Example 2, 0.5% detergent, 5 min
# [11] = Example 2, 0.5% detergent, 75 min
# [12] = Example 2, 0.5% detergent, 169 min
# [13] = Example 2, 0.5% detergent, 222 min
# [14] = Example 2, 0.5% detergent, 260 min
# Sequence of native firefly luciferase (P08659 whole entry): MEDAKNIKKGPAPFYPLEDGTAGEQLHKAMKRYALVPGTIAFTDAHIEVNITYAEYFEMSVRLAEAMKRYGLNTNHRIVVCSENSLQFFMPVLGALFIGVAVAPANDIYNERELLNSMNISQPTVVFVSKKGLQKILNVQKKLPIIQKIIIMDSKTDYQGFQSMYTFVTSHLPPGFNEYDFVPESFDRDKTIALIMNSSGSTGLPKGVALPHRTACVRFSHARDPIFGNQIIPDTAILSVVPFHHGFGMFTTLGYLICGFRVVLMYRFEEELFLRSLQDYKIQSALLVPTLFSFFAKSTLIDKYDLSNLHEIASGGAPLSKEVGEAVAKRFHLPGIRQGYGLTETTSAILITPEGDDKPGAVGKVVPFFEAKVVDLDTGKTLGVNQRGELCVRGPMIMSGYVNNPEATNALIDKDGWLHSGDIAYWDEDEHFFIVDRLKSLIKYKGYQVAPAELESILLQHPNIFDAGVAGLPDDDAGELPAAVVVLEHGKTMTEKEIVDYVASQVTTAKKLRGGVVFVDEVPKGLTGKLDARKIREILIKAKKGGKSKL
smiles,measurement,setting,value
"CCCCCCCCCCCC[N+](C)(C)C.[Br-] [DTAB, dodecyltrimethylammonium bromide]",effect on native firefly luciferase,[1],inactivated
same,"Relative ATPase Activity, slope det/slope lysate",[2]; 0.02 percent detergent,0.884
same,Slope (log percent ATP remaining vs time in minutes),[2]; 0.02 percent detergent,−0.0056
same,Average Relative Light Unit Values,"[2]; 0.05% detergent, 5 min",6487.93 rlu
same,Percent ATP Remaining,"[2]; 0.05% detergent, 5 min",100%
same,Average Relative Light Unit Values,"[2]; 0.05% detergent, 75 min",3138.81 rlu
same,Percent ATP Remaining,"[2]; 0.05% detergent, 75 min",48.4%
same,Average Relative Light Unit Values,"[2]; 0.05% detergent, 169 min",1496.01 rlu
same,Percent ATP Remaining,"[2]; 0.05% detergent, 169 min",23.1%
same,Average Relative Light Unit Values,"[2]; 0.05% detergent, 222 min",943.40 rlu
same,Percent ATP Remaining,"[2]; 0.05% detergent, 222 min",14.5%
same,Average Relative Light Unit Values,"[2]; 0.05% detergent, 260 min",638.30 rlu
same,Percent ATP Remaining,"[2]; 0.05% detergent, 260 min",9.8%
same,"Relative ATPase Activity, slope det/slope lysate",[2]; 0.05 percent detergent,0.690
same,Slope (log percent ATP remaining vs time in minutes),[2]; 0.05 percent detergent,−0.0039
same,Average Relative Light Unit Values,"[2]; 0.1% detergent, 5 min",6991.01 rlu
same,Percent ATP Remaining,"[2]; 0.1% detergent, 5 min",100%
same,Average Relative Light Unit Values,"[2]; 0.1% detergent, 75 min",4753.46 rlu
same,Percent ATP Remaining,"[2]; 0.1% detergent, 75 min",68.0%
same,Average Relative Light Unit Values,"[2]; 0.1% detergent, 169 min",2737.36 rlu
same,Percent ATP Remaining,"[2]; 0.1% detergent, 169 min",39.2%
same,Average Relative Light Unit Values,"[2]; 0.1% detergent, 222 min",1950.95 rlu
same,Percent ATP Remaining,"[2]; 0.1% detergent, 222 min",27.9%
same,Average Relative Light Unit Values,"[2]; 0.1% detergent, 260 min",1408.18 rlu
same,Percent ATP Remaining,"[2]; 0.1% detergent, 260 min",20.1%
same,"Relative ATPase Activity, slope det/slope lysate",[2]; 0.10 percent detergent,0.480
same,Slope (log percent ATP remaining vs time in minutes),[2]; 0.10 percent detergent,−0.0027
same,Percent ATP Remaining,"[2]; 0.5% (1), 5 min",100%
same,Percent ATP Remaining,"[2]; 0.5% (1), 75 min",90.6%
same,Percent ATP Remaining,"[2]; 0.5% (1), 169 min",88.0%
same,Percent ATP Remaining,"[2]; 0.5% (1), 222 min",87.3%
same,Percent ATP Remaining,"[2]; 0.5% (1), 260 min",80.2%
same,Percent ATP Remaining,"[2]; 0.5% (2), 5 min",100%
same,Percent ATP Remaining,"[2]; 0.5% (2), 75 min",95.8%
same,Percent ATP Remaining,"[2]; 0.5% (2), 169 min",90.3%
same,Percent ATP Remaining,"[2]; 0.5% (2), 222 min",88.0%
same,Percent ATP Remaining,"[2]; 0.5% (2), 260 min",85.0%
same,Average Relative Light Unit Values,"[2]; 0.5% (day 1), 5 min",5630.61 rlu
same,Average Relative Light Unit Values,"[2]; 0.5% (day 1), 75 min",5100.09 rlu
same,Average Relative Light Unit Values,"[2]; 0.5% (day 1), 169 min",4957.48 rlu
same,Average Relative Light Unit Values,"[2]; 0.5% (day 1), 222 min",4916.46 rlu
same,Average Relative Light Unit Values,"[2]; 0.5% (day 1), 260 min",4515.20 rlu
same,Average Relative Light Unit Values,"[2]; 0.5% (day 2), 5 min",6617.08 rlu
same,Average Relative Light Unit Values,"[2]; 0.5% (day 2), 75 min",6341.09 rlu
same,Average Relative Light Unit Values,"[2]; 0.5% (day 2), 169 min",5977.33 rlu
same,Average Relative Light Unit Values,"[2]; 0.5% (day 2), 222 min",5824.18 rlu
same,Average Relative Light Unit Values,"[2]; 0.5% (day 2), 260 min",5622.12 rlu
same,"Relative ATPase Activity, slope det/slope lysate",[2]; 0.50 percent detergent,0.055
same,Slope (log percent ATP remaining vs time in minutes),[2]; 0.50 percent detergent,−0.0003
same,"Relative ATPase Activity, slope det/slope lysate",[2]; [4],0.048
same,Slope (log percent ATP remaining vs time in minutes),[2]; [4],−0.0003
same,Average Relative Light Unit Values,"[2]; 1.0% detergent, 5 min",800.61 rlu
same,Percent ATP Remaining,"[2]; 1.0% detergent, 5 min",100%
same,Average Relative Light Unit Values,"[2]; 1.0% detergent, 75 min",693.13 rlu
same,Percent ATP Remaining,"[2]; 1.0% detergent, 75 min",86.6%
same,Average Relative Light Unit Values,"[2]; 1.0% detergent, 169 min",649.41 rlu
same,Percent ATP Remaining,"[2]; 1.0% detergent, 169 min",81.1%
same,Average Relative Light Unit Values,"[2]; 1.0% detergent, 222 min",671.03 rlu
same,Percent ATP Remaining,"[2]; 1.0% detergent, 222 min",83.8%
same,Average Relative Light Unit Values,"[2]; 1.0% detergent, 260 min",645.40 rlu
same,Percent ATP Remaining,"[2]; 1.0% detergent, 260 min",80.6%
same,"Relative ATPase Activity, slope det/slope lysate",[2]; 1.00 percent detergent,0.057
same,Slope (log percent ATP remaining vs time in minutes),[2]; 1.00 percent detergent,−0.0003
same,Average Relative Light Unit Values,[2]; [5],5870.43 rlu
same,Percent ATP Remaining,[2]; [5],100.00%
same,Average Relative Light Unit Values,[2]; [6],1997.09 rlu
same,Percent ATP Remaining,[2]; [6],34.02%
same,Average Relative Light Unit Values,[2]; [7],435.05 rlu
same,Percent ATP Remaining,[2]; [7],7.41%
same,Average Relative Light Unit Values,[2]; [8],329.83 rlu
same,Percent ATP Remaining,[2]; [8],5.62%
same,Average Relative Light Unit Values,[2]; [9],227.72 rlu
same,Percent ATP Remaining,[2]; [9],3.88%
same,Average Relative Light Unit Values,[2]; [10],5189.8 rlu
same,Percent ATP Remaining,[2]; [10],100.00%
same,Average Relative Light Unit Values,[2]; [11],4564.65 rlu
same,Percent ATP Remaining,[2]; [11],87.95%
same,Average Relative Light Unit Values,[2]; [12],4111.89 rlu
same,Percent ATP Remaining,[2]; [12],79.23%
same,Average Relative Light Unit Values,[2]; [13],4230.51 rlu
same,Percent ATP Remaining,[2]; [13],81.52%
same,Average Relative Light Unit Values,[2]; [14],4267.32 rlu
same,Percent ATP Remaining,[2]; [14],82.23%
same,concentrations which resulted in a 25% or greater decrease in the relative ATPase activity,[2],≥ 0.05%
"C[C@H](CCC(=O)[O-])[C@H]1CC[C@H]2[C@@H]3CC[C@@H]4C[C@H](O)CC[C@]4(C)[C@H]3C[C@H](O)[C@]12C.[Na+] [Deoxycholate, sodium deoxycholate]",precipitation in the samples,[3]; 0.1% deoxycholate,slight precipitation
same,precipitation in the samples,[3]; 0.5% deoxycholate,substantial precipitation
same,"Relative ATPase Activity, slope det/slope lysate",[2]; 0.02 percent detergent,1.004
same,Slope (log percent ATP remaining vs time in minutes),[2]; 0.02 percent detergent,−0.0064
same,Average Relative Light Unit Values,"[2]; 0.05% detergent, 5 min",5810.85 rlu
same,Percent ATP Remaining,"[2]; 0.05% detergent, 5 min",100%
same,Average Relative Light Unit Values,"[2]; 0.05% detergent, 75 min",1729.95 rlu
same,Percent ATP Remaining,"[2]; 0.05% detergent, 75 min",29.8%
same,Average Relative Light Unit Values,"[2]; 0.05% detergent, 169 min",738.1 rlu
same,Percent ATP Remaining,"[2]; 0.05% detergent, 169 min",12.7%
same,Average Relative Light Unit Values,"[2]; 0.05% detergent, 222 min",375.74 rlu
same,Percent ATP Remaining,"[2]; 0.05% detergent, 222 min",6.5%
same,Average Relative Light Unit Values,"[2]; 0.05% detergent, 260 min",188.59 rlu
same,Percent ATP Remaining,"[2]; 0.05% detergent, 260 min",3.2%
same,"Relative ATPase Activity, slope det/slope lysate",[2]; 0.05 percent detergent,0.984
same,Slope (log percent ATP remaining vs time in minutes),[2]; 0.05 percent detergent,−0.0055
same,Average Relative Light Unit Values,"[2]; 0.1% detergent, 5 min",6422.34 rlu
same,Percent ATP Remaining,"[2]; 0.1% detergent, 5 min",100%
same,Average Relative Light Unit Values,"[2]; 0.1% detergent, 75 min",3730.44 rlu
same,Percent ATP Remaining,"[2]; 0.1% detergent, 75 min",57.9%
same,Average Relative Light Unit Values,"[2]; 0.1% detergent, 169 min",1627.81 rlu
same,Percent ATP Remaining,"[2]; 0.1% detergent, 169 min",25.3%
same,Average Relative Light Unit Values,"[2]; 0.1% detergent, 222 min",1028.42 rlu
same,Percent ATP Remaining,"[2]; 0.1% detergent, 222 min",16.0%
same,Average Relative Light Unit Values,"[2]; 0.1% detergent, 260 min",669.31 rlu
same,Percent ATP Remaining,"[2]; 0.1% detergent, 260 min",10.4%
same,"Relative ATPase Activity, slope det/slope lysate",[2]; 0.10 percent detergent,0.684
same,Slope (log percent ATP remaining vs time in minutes),[2]; 0.10 percent detergent,−0.0038
same,Average Relative Light Unit Values,"[2]; 0.5% detergent, 5 min",3189.56 rlu
same,Percent ATP Remaining,"[2]; 0.5% detergent, 5 min",100%
same,Average Relative Light Unit Values,"[2]; 0.5% detergent, 75 min",2715.45 rlu
same,Percent ATP Remaining,"[2]; 0.5% detergent, 75 min",85.1%
same,Average Relative Light Unit Values,"[2]; 0.5% detergent, 169 min",2268.77 rlu
same,Percent ATP Remaining,"[2]; 0.5% detergent, 169 min",71.1%
same,Average Relative Light Unit Values,"[2]; 0.5% detergent, 222 min",2105.38 rlu
same,Percent ATP Remaining,"[2]; 0.5% detergent, 222 min",66.0%
same,Average Relative Light Unit Values,"[2]; 0.5% detergent, 260 min",1845.36 rlu
same,Percent ATP Remaining,"[2]; 0.5% detergent, 260 min",57.9%
same,"Relative ATPase Activity, slope det/slope lysate",[2]; 0.50 percent detergent,0.158
same,Slope (log percent ATP remaining vs time in minutes),[2]; 0.50 percent detergent,−0.0009
same,Average Relative Light Unit Values,"[2]; 1.0% detergent, 5 min",3.98 rlu
same,Average Relative Light Unit Values,"[2]; 1.0% detergent, 75 min",3.63 rlu
same,Average Relative Light Unit Values,"[2]; 1.0% detergent, 169 min",3.63 rlu
same,Average Relative Light Unit Values,"[2]; 1.0% detergent, 222 min",3.15 rlu
same,Average Relative Light Unit Values,"[2]; 1.0% detergent, 260 min",3.24 rlu
same,Average Relative Light Unit Values,[2]; [5],5962.61 rlu
same,Percent ATP Remaining,[2]; [5],100.00%
same,Average Relative Light Unit Values,[2]; [6],1694.47 rlu
same,Percent ATP Remaining,[2]; [6],28.42%
same,Average Relative Light Unit Values,[2]; [7],368.11 rlu
same,Percent ATP Remaining,[2]; [7],6.17%
same,Average Relative Light Unit Values,[2]; [8],241.05 rlu
same,Percent ATP Remaining,[2]; [8],4.04%
same,Average Relative Light Unit Values,[2]; [9],135.25 rlu
same,Percent ATP Remaining,[2]; [9],2.27%
same,times more ATP present in the sample after four hours when the detergent was present than when it was absent,"[2]; SDS 0.05%, deoxycholate 0.5% and 0.1%",about three to about twenty
same,concentrations which resulted in a 25% or greater decrease in the relative ATPase activity,[2],≥ 0.1%
